Reference: patent US5130303A, “Drug effect-enhancing agent for antitumor drug” (Nissan Chemical Industries Ltd., priority 1988, dated 1992)
Converted amounts (≈) assume the structure as drawn.

Experiments:
[1] = system: KB-C2; assay: in vitro chemosensitivity test, MTT colorimetric assay with vincristine (Test Example 1, Table 1); assay type: cell-based; settings: Homo sapiens, KB-C2, 96 h, read-out: IC50 of vincristine without a sample
Method: MTT colorimetric assay performed in a 96-well plate was used for an in vitro chemosensitivity test. The assay is dependent on the reduction of MTT by the mitochondrial dehydrogenase of viable cells to a blue formazan product which can be measured spectrophotometrically. Equal numbers of cells (2,000 for KB-3-1 and 5,000 for KB-C2) were inoculated into each well with […] of culture medium. After overnight incubation (37° C., 5% CO2), 20 μl of vincristine solution and 0.5 μl of sample solution were added and incubated for 4 days. Then, 50 μl of MTT (1.1 mg/ml PBS) was added to each well and incubated for further 4 hours. The resulting formazan was dissolved with 100 μl of DMSO after aspiration of the culture medium. Plates were placed on a plate shaker for 5 minutes and read immediately at 570 nm. IC50 (mg/ml) with a tested sample 10 μM is given in Table 1; and IC50 of vincristine without a sample was 5,000 ng/ml.
MTT: 3-(4,5-dimethylthiazol-2-yl)-2,5-diphenyltetrazolium bromide
MEM: minimum essential medium

[2] = system: cancer cells; settings: literature; cited from earlier work

Compound	IC50 [1]	effect on multidrug resistance / antitumor drug effects [2]
CC[C@]1(O)C[C@H]2CN(CCc3c([nH]c4ccccc34)[C@@](C(=O)OC)(c3cc4c(cc3OC)N(C=O)[C@H]3[C@@](O)(C(=O)OC)[C@H](OC(C)=O)[C@]5(CC)C=CCN6CC[C@]43[C@@H]65)C2)C1 [vincristine]	5 µg/mL (≈ 6.06 µM)	
COC(=O)C1=C(C)NC(C)=C(C(=O)OCCN(C)Cc2ccccc2)C1c1cccc([N+](=O)[O-])c1 (stereo not shown) [nicardipin]		enhances the antitumor activities of vindecine sulfate
COc1ccc([C@@H]2Sc3ccccc3N(CCN(C)C)C(=O)[C@@H]2OC(C)=O)cc1 [diltiazem]		enhances the drug effects of vincristine (VCR)
COc1ccc(CCN(C)CCCC(C#N)(c2ccc(OC)c(OC)c2)C(C)C)cc1OC (stereo not shown) [Verapamil]		overcomes the multidrug resistance against antitumor drugs
